Assay results as given in US8835415B2, “Standardized composition, method of manufacture and use in the resolution of RNA virus infection” (priority 2009, dated 2014).

Legend:
[1] = system: Sheep Red Blood Cells (SRBCs); assay type: in vivo, Swiss albino mice; details: Cyclophosphamide 25 mg/kg p.o alone
Method: Swiss albino mice of either sex were divided into 5 groups with six animals per group based on the treatment they received.
On Day 0, all five groups were sensitized with Sheep Red Blood Cells (SRBCs) containing 1×10^8 cells in normal saline. […] On Day 7, blood samples were collected from each mouse in the five groups by retro orbital puncture for the determination of primary antibody titre. Subsequently on day 7, after the blood withdrawal, the mice were challenged with 0.1 ml of SRBCs into the foot pad. On Day 14, blood samples were collected from each mouse by retro orbital puncture for the determination of secondary antibody titre.

[2] = system: H1N1 virus, Sensitive strain (676); assay: Plaque reduction assay in MDCK cells, H1N1 sensitive strain; assay type: cell-based; details: Influenza A virus, Tamiflu
[3] = system: HIV-1 (X4 tropic virus); assay: microbe, parasite or virus in culture; assay type: cell-based; details: CXCR4 trophic virus, PBMC
[4] = system: HIV-1 (R5 tropic virus); assay type: cell-based; details: CCR5 trophic virus, PBMC

O=P1(N(CCCl)CCCl)NCCCO1 (stereo not drawn) [Cyclophosphamide]
PRIMARY HA TITRE ON DAY 7 [1]: 0.33 | SECONDARY HA TITRE ON DAY 14 [1]: 6.67

CCOC(=O)C1=C[C@@H](OC(CC)CC)[C@H](NC(C)=O)[C@@H](N)C1 [Tamiflu, Oseltamivir]
EC50 [2]: 4.5 nM

Cc1cn([C@H]2C[C@H](N=[N+]=[N-])[C@@H](CO)O2)c(=O)[nH]c1=O [AZT]
inhibitory activity (in words) [3]: exhibited inhibitory activity | inhibitory activity (in words) [4]: exhibited inhibitory activity

Cc1ccc(-c2ccc3c(c2)C=C(C(=O)Nc2ccc(C[N+](C)(C)C4CCOCC4)cc2)CCC3)cc1.[Cl-] [Tak-779]
inhibitory activity (in words) [3]: only against CCR5 trophic virus | EC50 [4]: 0.56 nM

c1cc(CN2CCCNCCNCCCNCC2)ccc1CN1CCCNCCNCCCNCC1 [AMD3100]
EC50 ([3]; Human immunodeficiency virus 1): 2.05 nM | inhibitory activity (in words) [4]: only against CXCR4 trophic virus
